Article PMC11233931, “Remodeling tumor‐associated macrophage for anti‐cancer effects by rational design of irreversible inhibition of mitogen‐activated protein kinase‐activated protein kinase 2” (MedComm, 2024)

Key:
MK5 = biological target: T1, MK5 (Homo sapiens, UniProt Q8IW41); experiment: Eurofins kinase selectivity profile, MK5; assay type: biochemical
T1 construct: purchased Eurofins (Celle Lévescault)
T1 sequence (Q8IW41 1-473): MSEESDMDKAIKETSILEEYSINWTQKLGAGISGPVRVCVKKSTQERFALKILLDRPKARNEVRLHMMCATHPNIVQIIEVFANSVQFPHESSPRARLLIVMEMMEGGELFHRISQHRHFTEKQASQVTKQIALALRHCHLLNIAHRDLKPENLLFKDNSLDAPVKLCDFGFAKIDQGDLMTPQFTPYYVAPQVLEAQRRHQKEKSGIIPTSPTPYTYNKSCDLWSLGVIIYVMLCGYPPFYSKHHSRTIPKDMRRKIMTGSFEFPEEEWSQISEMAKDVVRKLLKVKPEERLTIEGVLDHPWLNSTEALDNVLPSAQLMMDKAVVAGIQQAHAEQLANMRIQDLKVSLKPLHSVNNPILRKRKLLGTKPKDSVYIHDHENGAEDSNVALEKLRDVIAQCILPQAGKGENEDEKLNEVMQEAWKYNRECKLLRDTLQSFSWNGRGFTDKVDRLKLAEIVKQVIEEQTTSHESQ
Method: Subsequently, to ascertain whether the high potency of compound 11 was specific for MK2, an additional 380 human recombinant protein kinases were screened.
To assess the impact of various compounds on MK2 kinase activity, we utilized the ADP‐Glo Assay Kit (Promega) following the manufacturer's instructions. Luminescence measurements were taken using a SpectraMax Paradigm reader. The inhibition percentage was calculated using the following formula: ((specific signalDMSO control − specific signal inhibitor)/(specific signalDMSO control)) × 100%. The IC50 values were determined employing dose–response curve fitting via Prism (Graph Pad). Additionally, Eurofins company (Celle Lévescault) conducted the analysis on compound 11’s inhibitory activity against 380 other human recombinant kinases at various concentrations.

[1] = test system: IL-6 and TNF-α secretion by RAW264.7 cells; experiment: Cytokine production by ELISA in LPS-stimulated RAW264.7; assay type: cell-based, mouse; conditions: LPS-stimulated RAW264.7, 24 h
Method: FIGURE 4 Targeting cellular MK2 signaling with irreversible inhibition by compound 11. (A and B) RT‐PCR analysis of IL‐1β, TNF‐α, and IL‐6 expression in Lipopolysaccharides (LPS)‐stimulated THP‐1 (A) and RAW264.7 (B) Cells, with pre‐treatment of compound 11 for 3 h followed by LPS (3 h) stimulation. (C) The inhibitory effects of compound 11 on TNF‐α and IL‐6 production in LPS‐stimulated RAW264.7 macrophages for 24 h, measured by ELISA. (D and E) Compound 11, alongside CC‐99677 and PF‐3644022, suppressed MK2 pathway activation, validated through western blot analysis post‐LPS stimulation. Cells were preincubated with the specified compounds for 1 h prior to LPS stimulation (100 ng/mL, 30 min). (F) Distinguishes the mode of action between compound 11 and CC‐99677. The complex structure of a small molecule and MK2 (3R2Y) with the same parent nucleus as compound 11 is shown in cyans, and the complex structure of a small molecule and MK2 (3FYJ) with the same parent nucleus as CC‐99677 is shown in orange. (G–I) The effect of indicated inhibitor on Hsp27 phosphorylation following inhibitor washout. […]
Following collection and centrifugation of the cell culture media, supernatants were harvested and the levels of cytokine secretion were evaluated using specific ELISA kits (absin), following the manufacturer's protocol.

[2] = test system: CD206 expression in RAW264.7 cells; experiment: Flow cytometry of CD206 in IL-4/IL-13 stimulated RAW264.7; assay type: cell-based, mouse; conditions: RAW264.7, IL-4/IL-13, 48 h
Excerpt: A previous study has reported that MK2 fostered M2‐like polarization of TAMs, driving a protumor and proangiogenic phenotype which in turn accelerates tumor progression.[21] We thus assessed the influence of compound 11 on macrophage polarization and function. Our experiments used human THP‐1 monocyte induced macrophages, mouse RAW264.7 macrophages, and mouse bone marrow‐derived macrophages (BMDM). These cells were induced into M2‐like macrophages using the classic IL‐4 and IL‐13 stimuli.
In the in vitro analysis, cells were harvested, stained with surface antibodies, and subsequently fixed and permeabilized using IC Buffer following manufacturer's guidelines. Antibodies targeting intracellular molecules were used for further staining as cells were incubated for an additional 30 min at 4°C. These cells were then filtered using a 300‐mesh cell sieve prior to analysis via CytoFLEX (Beckman Coulter Life Sciences).
Figure S3 Inhibition of pro-tumorigenic M2-like polarization in macrophages by compound 11. (A) Illustrates the treatment effects on various macrophage cells using Western blot analysis post IL-4/IL-13 exposure (30 minutes or the specified time period). (B) Examines CD206 expression in RAW264.7 cells via flow cytometry post 48hours treatment of compound 11 and IL-4/IL-13. […] IL-4/IL-13 (20 ng/mL) served as the stimulation control, while untreated cells were the baseline control. […]

[3] = Cell viability assay (CCK-8), CT26; assay type: cell-based; conditions: mouse, CT26 cells (colorectal carcinoma), CT26, murine colorectal carcinoma, read-out: IC50 (μM) mean ± SD, cytotoxicity
Method: In cellular experiments, cells are seeded into either 6-well or 96-well plates and incubated overnight, proceeding with treatments as described in the figure legends or methods section. The cell inoculation numbers are outlined as follows: For assays measuring cell viability, between 3,000 to 5,000 cells are seeded per well in 96-well plates. For other cellular assays, the seeding density ranges from 5×10^5 to 1×10^6 cells per well in 6-well plates.
Cells was plated into 96-well plates and incubated overnight prior to introduction of varying concentrations of compounds or control solvent. Following a 72-hour exposure period, cell viability was determined using a Cell Counting Kit-8 assay (Life-iLab, China). Dose-response curves were fitted using a four-parameter method facilitated by SoftMax Pro, which was subsequently used for the computation of IC50 values.

## C=CC(=O)Nc1cc(-c2cc(-c3cc4c([nH]3)CCNC4=O)ccn2)ccc1OC(F)(F)F [compound 11]
MK5
  IC50: > 100 nM
MK5; MAPKAP-K5/PRAK(h), 1 nM, read-out: Inhibition rate
  inhibition at 0.001 µM: -21%
MK5; MAPKAP-K5/PRAK(h), 10 nM, read-out: Inhibition rate
  inhibition at 0.01 µM: 6%
MK5; MAPKAP-K5/PRAK(h), 100 nM, read-out: Inhibition rate
  inhibition at 0.1 µM: 29%
[1]
  effect on secretion level of IL-6 and TNF-α: similarly reduced
[2]
  effect on CD206 expression: A similar result
[3]
  IC50 at 72 h: 47.2 ± 2.4 µM
